Assay results as given in PubChem BioAssay AID1259407 (Chemical Carcinogenesis Research Information System (CCRIS), 2018).
Activity calls are given as the source filed them. How the calls were made is not given here.

System: CCRIS mutagenicity, Ames/micronucleus/aberration tests
Assay: CCRIS mutagenicity studies
[1] = Test System: AMES SALMONELLA TYPHIMURIUM, Strain/Indicator: TA98, Metabolic Activation: NONE, Method: PREINCUBATION
[2] = Test System: AMES SALMONELLA TYPHIMURIUM, Strain/Indicator: TA100, Metabolic Activation: NONE, Method: PREINCUBATION
[3] = Test System: AMES SALMONELLA TYPHIMURIUM, Strain/Indicator: TA100, Metabolic Activation: NONE, Method: STANDARD PLATE
[4] = Test System: AMES SALMONELLA TYPHIMURIUM, Strain/Indicator: TA98, Metabolic Activation: NONE, Method: STANDARD PLATE
[5] = Test System: AMES SALMONELLA TYPHIMURIUM, Strain/Indicator: TA1978, Metabolic Activation: NONE, Method: STANDARD PLATE
[6] = Test System: AMES SALMONELLA TYPHIMURIUM, Strain/Indicator: TA102, Metabolic Activation: NONE, Method: PREINCUBATION

With `CN(C(=O)CN(CCO)CC(=O)N(C)C(C)(C)Cc1ccccc1)C(C)(C)Cc1ccccc1` the mutagenic call (Test System: AMES SALMONELLA TYPHIMURIUM, Strain/Indicator: TA97, Metabolic Activation: HAMSTER, LIVER, S-9, AROCLOR 1254 (10 OR 30%), Method: PREINCUBATION) was “inactive; negative”, the mutagenic call (Test System: AMES SALMONELLA TYPHIMURIUM, Strain/Indicator: TA97, Metabolic Activation: NONE, Method: PREINCUBATION) was “inactive; negative” and the mutagenic call (Test System: AMES SALMONELLA TYPHIMURIUM, Strain/Indicator: TA97, Metabolic Activation: RAT, LIVER, S-9, AROCLOR 1254 (10 OR 30%), Method: PREINCUBATION) was “inactive; negative”. The mutagenic call (Test System: AMES SALMONELLA TYPHIMURIUM, Strain/Indicator: TA98, Metabolic Activation: HAMSTER, LIVER, S-9, AROCLOR 1254 (10 OR 30%), Method: PREINCUBATION) was “inactive; negative”, the mutagenic call [1] was “inactive; negative” and the mutagenic call (Test System: AMES SALMONELLA TYPHIMURIUM, Strain/Indicator: TA98, Metabolic Activation: RAT, LIVER, S-9, AROCLOR 1254 (10 OR 30%), Method: PREINCUBATION) was “inactive; negative”. The mutagenic call (Test System: AMES SALMONELLA TYPHIMURIUM, Strain/Indicator: TA100, Metabolic Activation: HAMSTER, LIVER, S-9, AROCLOR 1254 (10 OR 30%), Method: PREINCUBATION) was “inactive; negative”, the mutagenic call [2] was “inactive; negative” and the mutagenic call (Test System: AMES SALMONELLA TYPHIMURIUM, Strain/Indicator: TA100, Metabolic Activation: RAT, LIVER, S-9, AROCLOR 1254 (10 OR 30%), Method: PREINCUBATION) was “inactive; negative”. The mutagenic call (Test System: AMES SALMONELLA TYPHIMURIUM, Strain/Indicator: TA1535, Metabolic Activation: HAMSTER, LIVER, S-9, AROCLOR 1254 (10 OR 30%), Method: PREINCUBATION) was “inactive; negative”, the mutagenic call (Test System: AMES SALMONELLA TYPHIMURIUM, Strain/Indicator: TA1535, Metabolic Activation: NONE, Method: PREINCUBATION) was “inactive; negative” and the mutagenic call (Test System: AMES SALMONELLA TYPHIMURIUM, Strain/Indicator: TA1535, Metabolic Activation: RAT, LIVER, S-9, AROCLOR 1254 (10 OR 30%), Method: PREINCUBATION) was “inactive; negative”.
`CS(=O)(=O)N1C2c3ccccc3-c3ccccc3C21` (stereo not given) was tested, and the mutagenic call [3] was “active; positive” and the mutagenic call (Test System: CHINESE HAMSTER V-79, Strain/Indicator: V-79/6-THIOGUANINE, Metabolic Activation: NONE, Method: STANDARD PLATE) was “inactive; negative”.
For `O=C1c2cccc(O)c2C(=O)c2cccc(O)c21`, the mutagenic call [4] was “active; positive”, the mutagenic call (Test System: AMES SALMONELLA TYPHIMURIUM, Strain/Indicator: TA98, Metabolic Activation: RAT, LIVER, S-9, AROCLOR 1254, Method: STANDARD PLATE) was “active; positive” and the mutagenic call (Test System: AMES SALMONELLA TYPHIMURIUM, Strain/Indicator: TA100, Metabolic Activation: RAT, LIVER, S-9, AROCLOR 1254, Method: STANDARD PLATE) was “inactive; negative”. For the same compound, the mutagenic call (Test System: AMES SALMONELLA TYPHIMURIUM, Strain/Indicator: TA1535, Metabolic Activation: NONE, Method: STANDARD PLATE) was “inactive; negative”, the mutagenic call (Test System: AMES SALMONELLA TYPHIMURIUM, Strain/Indicator: TA1535, Metabolic Activation: RAT, LIVER, S-9, AROCLOR 1254, Method: STANDARD PLATE) was “inactive; negative” and the mutagenic call (Test System: AMES SALMONELLA TYPHIMURIUM, Strain/Indicator: TA1537, Metabolic Activation: NONE, Method: STANDARD PLATE) was “active; positive”. For the same compound, the mutagenic call (Test System: AMES SALMONELLA TYPHIMURIUM, Strain/Indicator: TA1537, Metabolic Activation: RAT, LIVER, S-9, AROCLOR 1254, Method: STANDARD PLATE) was “active; positive”, the mutagenic call (Test System: AMES SALMONELLA TYPHIMURIUM, Strain/Indicator: TA1537, Metabolic Activation: RAT, LIVER, S-9, Method: PREINCUBATION) was “active; positive” and the mutagenic call (Test System: AMES SALMONELLA TYPHIMURIUM, Strain/Indicator: TA1538, Metabolic Activation: NONE, Method: STANDARD PLATE) was “active; positive”. The mutagenic call [5] was “inactive; negative”, the mutagenic call (Test System: AMES SALMONELLA TYPHIMURIUM, Strain/Indicator: TA1978, Metabolic Activation: RAT, LIVER, S-9, AROCLOR 1254, Method: STANDARD PLATE) was “inactive; negative” and the mutagenic call (Test System: AMES SALMONELLA TYPHIMURIUM, Strain/Indicator: TA2637, Metabolic Activation: RAT, LIVER, S-9, 5,6-BENZOFLAVONE AND/OR SODIUM PHENOBARBITAL, Method: PREINCUBATION) was “active; positive”. For the same compound, the mutagenic call (Test System: AMES SALMONELLA TYPHIMURIUM, Strain/Indicator: TA2637, Metabolic Activation: RAT, LIVER, S-105, 5,6-BENZOFLAVONE AND/OR SODIUM PHENOBARBITAL, Method: PREINCUBATION) was “inactive; negative”.
In the case of `Cc1ccc(C)c(N=Nc2c(O)ccc3ccccc23)c1`, the mutagenic call [4] is reported as “inactive; negative”, the mutagenic call (Test System: AMES SALMONELLA TYPHIMURIUM, Strain/Indicator: TA98, Metabolic Activation: RAT, LIVER, S-9, Method: STANDARD PLATE) is reported as “inactive; negative” and the mutagenic call [3] is reported as “inactive; negative”. For the same compound, the mutagenic call (Test System: AMES SALMONELLA TYPHIMURIUM, Strain/Indicator: TA100, Metabolic Activation: RAT, LIVER, S-9, Method: STANDARD PLATE) was “inactive; negative”.
In the case of `c1cnc2c3c(ccc2c1)CC[C@H]1O[C@@H]31`, the mutagenic call [3] is reported as “active; positive”.
For `O=C1C(Cl)=C(Cl)C(=O)C(Cl)=C1Cl`, the mutagenic call (End Point: In vitro chromosomal aberrations, Test System: Chinese hamster lung (CHL/IU) cells, Metabolic Activation: Rat, Liver, S9, Phenobarbital and 5,6-benzoflavone) was “active; positive (structural changes and ploidy)”, the mutagenic call [1] was “inactive; negative” and the mutagenic call [2] was “inactive; negative”. The mutagenic call (Test System: AMES SALMONELLA TYPHIMURIUM, Strain/Indicator: TA100, Metabolic Activation: RAT, LIVER, S-9, PHENOBARBITAL AND 5,6-BENZOFLAVONE, Method: PREINCUBATION) was “active; positive”, the mutagenic call [6] was “inactive; negative” and the mutagenic call (Test System: AMES SALMONELLA TYPHIMURIUM, Strain/Indicator: TA102, Metabolic Activation: RAT, LIVER, S-9, PHENOBARBITAL AND 5,6-BENZOFLAVONE, Method: PREINCUBATION) was “inactive; negative”. The mutagenic call (Test System: AMES SALMONELLA TYPHIMURIUM, Strain/Indicator: TA2637, Metabolic Activation: NONE, Method: PREINCUBATION) was “inactive; negative”, the mutagenic call (Test System: AMES SALMONELLA TYPHIMURIUM, Strain/Indicator: TA2637, Metabolic Activation: RAT, LIVER, S-9, PHENOBARBITAL AND 5,6-BENZOFLAVONE, Method: PREINCUBATION) was “inactive; negative” and the mutagenic call (Test System: Ames Salmonella typhimurium, Strain/Indicator: TA98, Metabolic Activation: None, Method: Preincubation) was “inactive; negative”. For the same compound, the mutagenic call (Test System: Ames Salmonella typhimurium, Strain/Indicator: TA98, Metabolic Activation: Rat, Liver, S9, Sodium phenobarbital and 5,6-benzoflavone (10%), Method: Preincubation) was “inactive; negative”, the mutagenic call (Test System: Ames Salmonella typhimurium, Strain/Indicator: TA100, Metabolic Activation: None, Method: Preincubation) was “inactive; negative” and the mutagenic call (Test System: Ames Salmonella typhimurium, Strain/Indicator: TA100, Metabolic Activation: Rat, Liver, S9, Sodium phenobarbital and 5,6-benzoflavone (10%), Method: Preincubation) was “active; positive”. For the same compound, the mutagenic call (Test System: Ames Salmonella typhimurium, Strain/Indicator: TA1535, Metabolic Activation: None, Method: Preincubation) was “inactive; negative”, the mutagenic call (Test System: Ames Salmonella typhimurium, Strain/Indicator: TA1535, Metabolic Activation: Rat, Liver, S9, Sodium phenobarbital and 5,6-benzoflavone (10%), Method: Preincubation) was “inactive; negative” and the mutagenic call (Test System: Ames Salmonella typhimurium, Strain/Indicator: TA1537, Metabolic Activation: None, Method: Preincubation) was “inactive; negative”. For the same compound, the mutagenic call (Test System: Ames Salmonella typhimurium, Strain/Indicator: TA1537, Metabolic Activation: Rat, Liver, S9, Sodium phenobarbital and 5,6-benzoflavone (10%), Method: Preincubation) was “inactive; negative”, the mutagenic call (Test System: E. coli, Strain/Indicator: WP2uvrA/pKM101, Metabolic Activation: None, Method: Preincubation) was “inactive; negative” and the mutagenic call (Test System: E. coli, Strain/Indicator: WP2uvrA/pKM101, Metabolic Activation: Rat, Liver, S9, Sodium Phenobarbital and 5,6-benzoflavone, Method: Preincubation) was “inactive; negative”.
With `CC(=O)CCC(C)=O` the mutagenic call [1] was “inactive; negative”, the mutagenic call (Test System: AMES SALMONELLA TYPHIMURIUM, Strain/Indicator: TA98, Metabolic Activation: RAT, LIVER, S-9, AROCLOR 1254, Method: PREINCUBATION) was “inactive; negative” and the mutagenic call [2] was “inactive; negative”. For the same compound, the mutagenic call (Test System: AMES SALMONELLA TYPHIMURIUM, Strain/Indicator: TA100, Metabolic Activation: RAT, LIVER, S-9, AROCLOR 1254, Method: PREINCUBATION) was “inactive; negative”, the mutagenic call [6] was “inactive; negative” and the mutagenic call (Test System: AMES SALMONELLA TYPHIMURIUM, Strain/Indicator: TA102, Metabolic Activation: RAT, LIVER, S-9, AROCLOR 1254, Method: PREINCUBATION) was “inactive; negative”.
`Cc1ccc(NCCCl)cc1` was tested, and the mutagenic call [4] was “active; positive”, the mutagenic call [3] was “active; positive” and the mutagenic call (Test System: AMES SALMONELLA TYPHIMURIUM, Strain/Indicator: TA1977, Metabolic Activation: NONE, Method: STANDARD PLATE) was “active; positive”. For the same compound, the mutagenic call [5] was “inactive; negative”.
